Reference: ChEMBL document CHEMBL4673241, “Cannabitwinol, a Dimeric Phytocannabinoid from Hemp, Cannabis sativa L., Is a Selective Thermo-TRP Modulator” (J Nat Prod, 2020)

How the values were obtained:
Type in all cases: cell-based
[1] = biological target: Transient receptor potential cation channel subfamily M member 8 (Rattus norvegicus, UniProt Q8R455); experiment: Antagonist activity at rat TRPM8 expressed in HEK293 cells assessed as inhibition of icilin-induced Ca2+ response preincubated for 5 mins followed by icilin addition by Fluo-4AM dye based fluorescence assay
[2] = biological target: Transient receptor potential cation channel subfamily A member 1 (Rattus norvegicus) (UniProt Q6RI86); experiment: Agonist activity at rat TRPA1 stably transfected in HEK293 cells assessed as increase in calcium influx by Fluo-4-AM dye based spectrofluorimetric method relative to allylisothiocyanate; settings: filed as agonist
[3] = biological target: T1, Transient receptor potential cation channel subfamily V member 2 (Rattus norvegicus, UniProt Q9WUD2); experiment: Agonist activity at rat TRPV2 stably transfected in HEK293 cells assessed as increase in calcium influx in presence of ionomycin by Fluo-4-AM dye based spectrofluorimetric method
T1 sequence (Q9WUD2 whole entry): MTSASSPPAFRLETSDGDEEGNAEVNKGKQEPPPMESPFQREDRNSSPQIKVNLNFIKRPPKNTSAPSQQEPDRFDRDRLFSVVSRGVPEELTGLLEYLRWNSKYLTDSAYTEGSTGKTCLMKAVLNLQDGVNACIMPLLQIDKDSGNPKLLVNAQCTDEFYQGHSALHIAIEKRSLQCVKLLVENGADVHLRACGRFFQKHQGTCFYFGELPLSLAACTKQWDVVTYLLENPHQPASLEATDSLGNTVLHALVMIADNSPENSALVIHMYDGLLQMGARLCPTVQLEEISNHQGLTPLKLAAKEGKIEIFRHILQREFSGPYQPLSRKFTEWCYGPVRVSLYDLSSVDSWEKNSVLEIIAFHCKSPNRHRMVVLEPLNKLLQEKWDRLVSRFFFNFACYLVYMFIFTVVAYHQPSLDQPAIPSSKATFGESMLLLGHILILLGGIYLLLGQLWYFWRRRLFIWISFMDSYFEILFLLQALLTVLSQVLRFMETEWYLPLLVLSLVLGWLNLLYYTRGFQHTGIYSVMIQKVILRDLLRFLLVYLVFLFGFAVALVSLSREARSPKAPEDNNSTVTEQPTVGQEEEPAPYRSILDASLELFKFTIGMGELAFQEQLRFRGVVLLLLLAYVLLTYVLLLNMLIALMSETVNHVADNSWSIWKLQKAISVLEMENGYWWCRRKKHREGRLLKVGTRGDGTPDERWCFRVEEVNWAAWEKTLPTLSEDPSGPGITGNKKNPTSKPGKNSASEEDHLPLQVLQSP

[4] = biological target: T2, Transient receptor potential cation channel subfamily A member 1 (Rattus norvegicus, UniProt Q6RI86); experiment: Agonist activity at rat TRPA1 stably transfected in HEK293 cells assessed as increase in calcium influx in presence of allylisothiocyanate by Fluo-4-AM dye based spectrofluorimetric method
[5] = biological target: T3, Transient receptor potential cation channel subfamily V member 2 (Rattus norvegicus) (UniProt Q9WUD2); experiment: Agonist activity at rat TRPV2 stably transfected in HEK293 cells assessed as increase in calcium influx by Fluo-4-AM dye based spectrofluorimetric method relative to ionomycin
T3 sequence (whole entry): T1 sequence (Q9WUD2 whole entry)

[6] = biological target: Transient receptor potential cation channel subfamily V member 4 (Rattus norvegicus) (UniProt Q9ERZ8); experiment: Agonist activity at rat TRPV4 stably transfected in HEK293 cells assessed as increase in calcium influx by Fluo-4-AM dye based spectrofluorimetric method relative to ionomycin
[7] = biological target: T4, Transient receptor potential cation channel subfamily V member 1 (Homo sapiens, UniProt Q8NER1); experiment: Agonist activity at human TRPV1 stably transfected in HEK293 cells assessed as increase in calcium influx by Fluo-4-AM dye based spectrofluorimetric method relative to ionomycin
[8] = biological target: T5, Heat sensitive channel TRPV3 (Rattus norvegicus, UniProt Q4QYD9); experiment: Agonist activity at rat TRPV3 stably transfected in HEK293 cells assessed as increase in calcium influx in presence of ionomycin by Fluo-4-AM dye based spectrofluorimetric method
T5 sequence (Q4QYD9 whole entry): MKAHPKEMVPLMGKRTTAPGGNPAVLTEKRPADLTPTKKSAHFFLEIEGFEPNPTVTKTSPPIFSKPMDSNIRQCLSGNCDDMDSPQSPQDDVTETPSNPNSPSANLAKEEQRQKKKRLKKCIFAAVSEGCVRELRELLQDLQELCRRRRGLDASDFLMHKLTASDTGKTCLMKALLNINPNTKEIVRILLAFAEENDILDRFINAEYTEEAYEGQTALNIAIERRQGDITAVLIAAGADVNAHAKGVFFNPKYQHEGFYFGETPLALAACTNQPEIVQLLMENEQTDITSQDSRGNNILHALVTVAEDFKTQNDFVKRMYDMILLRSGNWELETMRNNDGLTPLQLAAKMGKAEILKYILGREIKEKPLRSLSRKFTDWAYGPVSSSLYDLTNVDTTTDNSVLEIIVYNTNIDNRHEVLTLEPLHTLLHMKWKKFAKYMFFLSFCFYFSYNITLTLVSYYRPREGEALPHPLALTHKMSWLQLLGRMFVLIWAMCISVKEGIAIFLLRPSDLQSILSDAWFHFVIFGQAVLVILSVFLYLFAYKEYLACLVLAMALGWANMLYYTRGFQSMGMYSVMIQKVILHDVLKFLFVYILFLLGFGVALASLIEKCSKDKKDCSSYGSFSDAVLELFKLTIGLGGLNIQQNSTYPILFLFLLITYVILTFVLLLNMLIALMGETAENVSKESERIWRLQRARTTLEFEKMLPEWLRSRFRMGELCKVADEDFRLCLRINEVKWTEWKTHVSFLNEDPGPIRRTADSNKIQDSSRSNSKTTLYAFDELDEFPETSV

[9] = biological target: T1, Transient receptor potential cation channel subfamily V member 2; experiment: Antagonist activity at rat TRPV2 expressed in HEK293 cells assessed as inhibition of LPC-induced Ca2+ response preincubated for 5 mins followed by LPC addition by Fluo-4AM dye based fluorescence assay
[10] = biological target: T4, Transient receptor potential cation channel subfamily V member 1; experiment: Antagonist activity at human TRPV1 expressed in HEK293 cells assessed as inhibition of capsaicin-induced Ca2+ response preincubated for 5 mins followed by capsaicin addition by Fluo-4AM dye based fluorescence assay
[11] = biological target: T6, Heat sensitive channel TRPV3 (Rattus norvegicus) (UniProt Q4QYD9); experiment: Agonist activity at rat TRPV3 stably transfected in HEK293 cells assessed as increase in calcium influx by Fluo-4-AM dye based spectrofluorimetric method relative to ionomycin; settings: filed as agonist
T6 sequence (whole entry): T5 sequence (Q4QYD9 whole entry)

[12] = biological target: T7, Transient receptor potential cation channel subfamily V member 4 (Rattus norvegicus, UniProt Q9ERZ8); experiment: Antagonist activity at rat TRPV4 expressed in HEK293 cells assessed as inhibition of GSK1016790A-induced Ca2+ response preincubated for 5 mins followed by GSK1016790A addition by Fluo-4AM dye based fluorescence assay
[13] = biological target: T5, Heat sensitive channel TRPV3; experiment: Antagonist activity at rat TRPV3 expressed in HEK293 cells assessed as inhibition of thymol-induced Ca2+ response preincubated for 5 mins followed by thymol addition by Fluo-4AM dye based fluorescence assay
[14] = biological target: T4, Transient receptor potential cation channel subfamily V member 1; experiment: Agonist activity at human TRPV1 stably transfected in HEK293 cells assessed as increase in calcium influx in presence of ionomycin by Fluo-4-AM dye based spectrofluorimetric method
[15] = biological target: T7, Transient receptor potential cation channel subfamily V member 4; experiment: Agonist activity at rat TRPV4 stably transfected in HEK293 cells assessed as increase in calcium influx in presence of ionomycin by Fluo-4-AM dye based spectrofluorimetric method
[16] = biological target: T2, Transient receptor potential cation channel subfamily A member 1; experiment: Antagonist activity at rat TRPA1 expressed in HEK293 cells assessed as inhibition of allylisothiocyanate-induced Ca2+ response preincubated for 5 mins followed by allylisothiocyanate addition by Fluo-4AM dye based fluorescence assay

T4 sequence (Q8NER1 whole entry): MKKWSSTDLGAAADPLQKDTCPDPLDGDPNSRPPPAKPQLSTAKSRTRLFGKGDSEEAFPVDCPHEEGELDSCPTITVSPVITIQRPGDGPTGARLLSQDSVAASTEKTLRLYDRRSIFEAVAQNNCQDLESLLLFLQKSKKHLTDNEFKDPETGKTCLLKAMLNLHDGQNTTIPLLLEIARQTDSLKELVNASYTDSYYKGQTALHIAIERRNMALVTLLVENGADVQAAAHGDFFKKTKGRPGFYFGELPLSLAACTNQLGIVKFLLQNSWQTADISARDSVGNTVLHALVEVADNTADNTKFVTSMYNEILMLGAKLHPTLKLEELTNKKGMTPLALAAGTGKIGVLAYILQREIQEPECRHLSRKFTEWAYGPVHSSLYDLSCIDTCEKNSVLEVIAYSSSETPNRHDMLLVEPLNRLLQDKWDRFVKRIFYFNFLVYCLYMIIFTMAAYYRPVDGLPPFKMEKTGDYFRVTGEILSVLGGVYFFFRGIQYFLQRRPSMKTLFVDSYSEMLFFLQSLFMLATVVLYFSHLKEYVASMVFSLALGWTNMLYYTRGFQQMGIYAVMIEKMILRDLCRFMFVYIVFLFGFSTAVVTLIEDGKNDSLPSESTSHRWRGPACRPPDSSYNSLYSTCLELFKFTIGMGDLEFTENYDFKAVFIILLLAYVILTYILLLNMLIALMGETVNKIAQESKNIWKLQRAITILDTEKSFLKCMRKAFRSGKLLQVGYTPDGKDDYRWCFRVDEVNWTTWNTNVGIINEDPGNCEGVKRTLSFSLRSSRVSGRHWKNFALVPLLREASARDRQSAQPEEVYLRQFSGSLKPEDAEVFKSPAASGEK
T2 sequence (Q6RI86 whole entry): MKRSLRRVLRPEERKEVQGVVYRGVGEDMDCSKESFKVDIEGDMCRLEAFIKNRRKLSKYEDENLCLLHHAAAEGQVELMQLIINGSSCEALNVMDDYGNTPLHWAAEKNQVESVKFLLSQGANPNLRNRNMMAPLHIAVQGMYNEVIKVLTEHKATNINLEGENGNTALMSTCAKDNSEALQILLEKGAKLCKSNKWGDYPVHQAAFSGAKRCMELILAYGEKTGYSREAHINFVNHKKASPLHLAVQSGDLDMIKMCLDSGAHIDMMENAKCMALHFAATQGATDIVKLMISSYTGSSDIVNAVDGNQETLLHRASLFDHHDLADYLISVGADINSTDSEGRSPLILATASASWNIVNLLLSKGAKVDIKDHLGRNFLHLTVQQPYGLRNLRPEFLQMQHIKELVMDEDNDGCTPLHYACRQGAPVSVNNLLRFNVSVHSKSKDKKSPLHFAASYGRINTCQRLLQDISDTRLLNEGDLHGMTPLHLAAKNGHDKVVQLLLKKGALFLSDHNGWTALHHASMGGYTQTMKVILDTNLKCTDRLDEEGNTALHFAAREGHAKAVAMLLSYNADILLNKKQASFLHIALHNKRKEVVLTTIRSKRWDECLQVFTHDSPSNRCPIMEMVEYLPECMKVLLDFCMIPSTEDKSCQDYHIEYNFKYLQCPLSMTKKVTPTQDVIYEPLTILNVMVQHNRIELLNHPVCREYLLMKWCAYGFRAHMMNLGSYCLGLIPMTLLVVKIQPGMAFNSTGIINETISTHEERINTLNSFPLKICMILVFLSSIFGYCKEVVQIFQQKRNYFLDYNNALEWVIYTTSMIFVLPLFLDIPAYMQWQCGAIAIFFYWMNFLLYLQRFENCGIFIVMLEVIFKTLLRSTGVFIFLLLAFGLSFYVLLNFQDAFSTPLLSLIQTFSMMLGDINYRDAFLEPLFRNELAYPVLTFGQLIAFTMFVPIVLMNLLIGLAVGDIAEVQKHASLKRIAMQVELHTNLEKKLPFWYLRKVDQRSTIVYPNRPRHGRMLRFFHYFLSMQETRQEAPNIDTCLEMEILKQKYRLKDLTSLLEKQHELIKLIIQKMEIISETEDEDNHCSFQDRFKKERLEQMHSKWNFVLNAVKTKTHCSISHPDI
T7 sequence (Q9ERZ8 whole entry): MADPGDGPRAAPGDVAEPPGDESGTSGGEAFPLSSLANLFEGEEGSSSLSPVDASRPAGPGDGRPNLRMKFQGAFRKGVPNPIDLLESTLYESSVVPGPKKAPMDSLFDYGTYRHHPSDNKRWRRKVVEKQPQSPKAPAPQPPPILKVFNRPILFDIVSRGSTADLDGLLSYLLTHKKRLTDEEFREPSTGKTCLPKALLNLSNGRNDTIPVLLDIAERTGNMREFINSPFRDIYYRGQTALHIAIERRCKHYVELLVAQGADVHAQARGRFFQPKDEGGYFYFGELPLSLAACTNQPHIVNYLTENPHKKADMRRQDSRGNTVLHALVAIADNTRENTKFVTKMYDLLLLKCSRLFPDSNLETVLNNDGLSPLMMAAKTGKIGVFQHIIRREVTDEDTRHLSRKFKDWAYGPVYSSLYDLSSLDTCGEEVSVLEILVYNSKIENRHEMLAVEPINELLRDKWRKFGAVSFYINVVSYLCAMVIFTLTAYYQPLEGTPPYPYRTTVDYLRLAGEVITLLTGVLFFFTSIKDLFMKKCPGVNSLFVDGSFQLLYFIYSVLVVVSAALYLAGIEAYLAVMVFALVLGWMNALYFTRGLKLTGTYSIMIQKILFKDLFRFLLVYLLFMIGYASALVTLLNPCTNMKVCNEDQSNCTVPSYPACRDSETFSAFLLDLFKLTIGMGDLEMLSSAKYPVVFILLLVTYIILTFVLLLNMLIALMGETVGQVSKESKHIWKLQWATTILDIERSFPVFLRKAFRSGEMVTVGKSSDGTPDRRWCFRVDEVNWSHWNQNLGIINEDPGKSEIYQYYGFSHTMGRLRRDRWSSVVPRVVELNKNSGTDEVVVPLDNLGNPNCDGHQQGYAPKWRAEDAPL
Transient receptor potential cation channel subfamily A member 1 (Rattus norvegicus), sequence (Q6RI86 whole entry): as the sequence (Q6RI86 whole entry) above
Transient receptor potential cation channel subfamily V member 4 (Rattus norvegicus), sequence (Q9ERZ8 whole entry): as the sequence (Q9ERZ8 whole entry) above
Transient receptor potential cation channel subfamily M member 8, sequence (Q8R455 whole entry): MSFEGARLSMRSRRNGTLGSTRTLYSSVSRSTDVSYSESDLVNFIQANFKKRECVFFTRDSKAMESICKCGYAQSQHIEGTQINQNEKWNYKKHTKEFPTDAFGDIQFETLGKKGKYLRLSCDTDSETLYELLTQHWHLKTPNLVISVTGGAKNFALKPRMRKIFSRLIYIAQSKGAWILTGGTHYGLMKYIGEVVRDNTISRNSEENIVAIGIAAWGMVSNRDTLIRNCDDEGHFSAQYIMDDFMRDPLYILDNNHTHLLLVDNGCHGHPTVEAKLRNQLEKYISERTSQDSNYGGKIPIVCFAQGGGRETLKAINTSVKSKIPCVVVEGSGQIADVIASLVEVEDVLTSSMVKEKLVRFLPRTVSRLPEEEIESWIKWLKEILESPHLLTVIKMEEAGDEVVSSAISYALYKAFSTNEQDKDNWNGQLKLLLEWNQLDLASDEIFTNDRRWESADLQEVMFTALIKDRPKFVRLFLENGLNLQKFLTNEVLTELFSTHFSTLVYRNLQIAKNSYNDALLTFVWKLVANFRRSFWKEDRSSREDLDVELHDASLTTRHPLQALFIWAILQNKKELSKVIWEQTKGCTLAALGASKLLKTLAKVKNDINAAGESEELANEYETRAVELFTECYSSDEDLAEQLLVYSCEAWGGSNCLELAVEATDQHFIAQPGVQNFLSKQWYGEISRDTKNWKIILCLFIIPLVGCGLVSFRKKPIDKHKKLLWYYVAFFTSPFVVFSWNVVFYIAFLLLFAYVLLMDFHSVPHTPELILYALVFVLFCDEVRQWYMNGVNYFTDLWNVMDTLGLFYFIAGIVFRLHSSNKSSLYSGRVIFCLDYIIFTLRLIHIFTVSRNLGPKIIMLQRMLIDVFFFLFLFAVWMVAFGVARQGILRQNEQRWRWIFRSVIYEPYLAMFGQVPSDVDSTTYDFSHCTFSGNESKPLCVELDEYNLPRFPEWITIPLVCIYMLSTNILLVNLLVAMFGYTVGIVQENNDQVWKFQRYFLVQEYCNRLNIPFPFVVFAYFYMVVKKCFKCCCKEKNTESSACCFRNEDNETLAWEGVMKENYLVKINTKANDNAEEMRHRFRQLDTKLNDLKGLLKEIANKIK

SMILES | IC50 [1] [µM] | Efficacy [2] [%] | EC50 ([3]; hek293) | EC50 [4] [nM] | Efficacy [5] [%] | Efficacy [6] [%] | Efficacy [7] [%] | EC50 [8] [nM] | IC50 [9] [nM] | IC50 [10] [µM] | Efficacy [11] [%] | IC50 [12] [µM] | IC50 [13] [µM] | EC50 [14] [µM] | EC50 [15] [µM] | IC50 [16] [nM] | EC50 ([3]; read-out: EC50) [nM] | Efficacy ([5]; filed as agonist) [%] | Efficacy ([7]; filed as agonist) [%]
C=C(C)[C@@H]1CCC(C)=C[C@H]1c1c(O)cc(CCCCC)c(Cc2c(CCCCC)cc(O)c([C@@H]3C=C(C)CC[C@H]3C(=C)C)c2O)c1O | 3.9 | 96.7 | Not Active | 3000 | < 10 | 10.6 | 12.3 | 4600 | > 20000 | > 20 | 66.5 | > 20 | 11.8 | 4.5 | 6.2 | 4900 |  |  | 
C=C(C)[C@@H]1CCC(C)=C[C@H]1c1c(O)cc(CCCCC)cc1O [CANNABIDIOL] | 2.8 | 109 |  | 480 |  | 15.2 |  | 510 | 1100 | 3.7 | 53.6 | 5.9 | 0.75 | 4.1 | 0.9 | 450 | 1200 | 67.5 | 78.4
